From patent US10669242B2 (priority 2016, dated 2020)
Entries after “also recorded” stand apart in the source; their conditions may differ.

Tests used:
[1] = system: C. difficile toxin (TcdA and TcdB, ~1:1); assay: Murine C. difficile toxin model (intrarectal toxin); format: in vivo, C57BL/6 mice; details: for IL-1β (% Inhibition) / MPO (% Inhibition): murine C. difficile toxin model, PO, 50 mg/kg body weight
C. difficile strain 630 = format: in vivo, Golden Syrian hamsters
[2] = Plasma concentrations in the murine C. difficile toxin model (LC/MS); format: in vivo; details: mice, over four hours
Experimental: We monitored the plasma concentrations of Example 6a following the IR, PO and IP administrations in the murine C. difficile toxin model (Example 63). Plasma concentrations of Example 6a were determined with the use of high pressure liquid chromatography (HPLC) and mass spectrometry (MS) following the administration of Example 6a. Plasma concentration curve of Example 6a was plotted over four hours (FIG. 5). […] It is noted that reduction of the IL-1β and MPO levels as well as improved colon histopathology correlates with the plasma concentrations of Example 6a.
To determine plasma concentration of compounds, blood (˜200 μl) was drawn by retro-orbital bleed, and compound concentration was determined by liquid chromatography (LC)/mass spectrometry (MS)(AB Sciex API-3000 LC/MS/MS system).

[3] = oral (PO), 50 mg/kg, intrarectal toxin 12.5 μg
[4] = intraperitoneal (IP), 50 mg/kg, intrarectal toxin 12.5 μg
[5] = intrarectal (IR) co-administration with toxin (12.5 μg), 25 mg/kg, ~12.5 mg/kg, 4 hours

| Structure (SMILES) | IL-1β (% Inhibition) [1] [%] | MPO (% Inhibition) [1] [%] | IL-1β in colon tissue [1, 3] | MPO in colon tissue [1, 3] | toxin effect on colon length [1, 3] | survival until Day 10 (C. difficile strain 630; Example 5ae 50 mg/kg PO twice per day for 7 days) [%] | median survival time / protection from mortality (C. difficile strain 630; PO twice per day, Example 5ae 50 mg/kg 7 days, vancomycin 5 mg/kg 5 days) | IL-1β in colon tissue [1, 4] | MPO in colon tissue [1, 4] | toxin effect on colon length [1, 4] | toxin effect on colon length [1, 5] | toxin-induced IL-1β in colon tissue [1, 5] | toxin-induced MPO in colon tissue [1, 5] | colon histopathology ([1]; oral (PO), intrarectal toxin 12.5 μg) | plasma concentration ([2]; IP administration, compared to IR) | plasma concentration ([2]; IR administration) | plasma concentration ([2]; PO administration, compared to IR) |
| --- | --- | --- | --- | --- | --- | --- | --- | --- | --- | --- | --- | --- | --- | --- | --- | --- | --- |
| O=C(Nc1ccc(C(F)(F)F)cn1)c1ccc(CN2C(=O)c3ccc(Cl)cc3NC(=O)[C@H]2Cc2ccccn2)cc1Cl [Example 5ae, (R)-2-Chloro-4-((8-chloro-2,5-dioxo-3-(pyridin-2-ylmethyl)-2,3-dihydro-1H-benzo[e][1,4]diazepin-4(5H)-yl)methyl)-N-(5-(trifluoromethyl)pyridin-2-yl)benzamide] | 81 | 79 | reduced the levels of IL-1β | reduced | reduced the C. difficile toxin-mediated effects on colon length | 70 | significantly improved the median survival time | – | – | – | – | – | – | – | – | – | – |
| COc1ccc(NC(=O)c2ccc(CN3C(=O)c4ccc(Cl)cc4NC(=O)[C@H]3Cc3ccccn3)cc2F)nc1 [Example 6a, (R)-4-((8-Chloro-2,5-dioxo-3-(pyridin-2-ylmethyl)-2,3-dihydro-1H-benzo[e][1,4]diazepin-4(5H)-yl)methyl)-2-fluoro-N-(5-methoxypyridin-2-yl)benzamide] | 80 | 81 | decreased the C. difficile toxin-induced IL-1β; also recorded: reduced the levels of IL-1β; also recorded: reduced the concentrations of IL-1β | decreased; also recorded: reduced | reduced the C. difficile toxin-mediated effects on colon length; also recorded: effective in reducing the C. difficile toxin effects on colon length | – | – | decreased the C. difficile toxin-induced IL-1β; also recorded: reduced the concentrations of IL-1β | decreased; also recorded: reduced | reduced the C. difficile toxin-mediated effects on colon length; also recorded: effective in reducing the C. difficile toxin effects on colon length | reduced the C. difficile toxin-mediated effects on colon length | decreased the C. difficile toxin-induced IL-1β | decreased | prevention of tissue damage; also recorded: improved the colon histopathology | significantly higher plasma concentrations | low plasma concentrations | significantly higher plasma concentrations |
